One experiment relates to P388. The experiment can be described thus: XTT proliferation assay, P388 (wild type). It is filed as cell-based, murine. As to conditions: Mus musculus, P388; read-out: XTT Proliferationsassay, EC50 P388. An excerpt: (§1) Die Substanzen 1,2, 4-6 wurden in einem Proliferationstest an etablierten Tumorzelllinien auf ihre anti-proliferative Aktivität hin untersucht (D.A. Scuderio et al. Cancer Res. 1988, 48, 4827-4833). Der verwendete Test bestimmt die zelluläre Dehydrogenase-Aktivität und ermöglicht eine Bestimmung der Zellvitalität und indirekt der Zellzahl. Bei den verwendeten Zelllinien handelt es sich um die humane Cervixkarzinom Zelllinie KB/HeLa (ATCC CCL17), die ovariale Adenokarzinomzelllinie SKOV-3 (ATCC HTB77), die humane Glioblastom Zelllinie SF-268 (NCI 503138) und die Lungenkarzinom Zelllinie NCI-H460 (NCI 503473). Des weiteren wurde zur Untersuchung der Zellzyklus-spezifischen Wirkung der Substanz ein RKOp27 Zellsystem verwendet (M. Schmidt et al. Oncogene19(20):2423-9, 2000). Bei RKO handelt es sich um eine humane Kolonkarzinomlinie, in der der Zellzyklusinhibitor p27 ^kip1 mittels des Ecdyson Expressionssystems induziert zur Expression gebracht und zu einem Zellzyklusarrest spezifisch in G2 geführt werden kann. Eine unspezifisch wirkende Substanz hemmt die Proliferation unabhängig davon, ob die RKO Zelle in G1 oder G2 arretiert ist oder nicht. Zellzyklus-spezifische Substanzen wie beispielsweise Tubulininhibitoren sind hingegen nur dann zytotoxisch, wenn Zellen nicht arretiert sind und der Zellzyklus durchlaufen wird. In Tabelle 1 ist die zytotoxische bzw. wachstumshemmende Aktivität der beschriebenen Verbindungen mit / ohne Expression von p27^kip1gezeigt. Die getesteten Verbindungen zeigten im induzierten Zustand von p27^kiP1 keine zytotoxische Aktivität. Die Ergebnisse zeigen eine sehr potente Hemmung der Proliferation ausgewählter Tumorzelllinien durch die genannten Substanzen. Tabelle 1:
(§2) Zur weiteren Charakterisierung wurden die Substanzen 1,2,4-6 gegenüber multi drug resistenten Zelllinien im Vergleich zu den nicht-resistenten Wildtypzelllinien untersucht.
(§3) Bei den untersuchten Zelllinien handelt es sich um die murine L1210, die akute myeloische Leukaemie Zelllinie LT12 und um die resistenten Linien L1210/mdr und LT12/mdr. Außerdem wurden die murine P388 Zelllinie (methyl-cholanthreneinduced lymphoid neoplasm) sowie die Doxorubicin-resistente P388 als Testsysteme herangezogen.

The next experiment concerns RKOp27. The experiment can be described thus: XTT proliferation assay, RKOp27 cell system with / without induced p27kip1 expression. The class given is cell-based. As to conditions: Homo sapiens.
Source text: as §1, with “Substanzen.” for “Substanzen. Tabelle 1:”
(In general: Tetrazolium assays rely on reduction of a dye to a coloured formazan, in cell work by metabolically active cells.)

The subject of a further experiment is LT12mdr. The experiment can be described thus: XTT proliferation assay, LT12mdr (resistant). The class given is cell-based. As to conditions: read-out: XTT Proliferationsassay, EC50 LT12mdr.
Source text: as §1, §2, §3

Another experiment deals with NCI-H460. The experiment can be described thus: XTT proliferation assay, NCI-H460. Particulars: Homo sapiens, read-out: XTT Proliferationsassay, EC50 NCI-H460. It is filed as cell-based.
Source text: as §1, with “Substanzen.” for “Substanzen. Tabelle 1:”

The next experiment deals with L1210. The experiment can be described thus: XTT proliferation assay, L1210 (wild type). It is filed as cell-based, murine. Particulars: Mus musculus, L1210; read-out: XTT Proliferationsassay, EC50 L1210.
Source text: as §1, §2, §3

The subject of the next experiment is DU145. The experiment can be described thus: XTT proliferation assay, DU145. It is filed as cell-based, human. As to conditions: for EC50: Homo sapiens, DU-145, DU145, read-out: XTT Proliferationsassay, EC50 DU145.
Source text: as §1
(§4) Zur weiteren Charakterisierung wurden die Substanzen 1-6 an einem Panel von 7 humanen Tumorzelllinien auf ihre anti-proliferative Wirkung hin untersucht. Bei den untersuchten Zelllinien handelt es sich um die humanen Glioma Zelllinien A172 (ATCC CRL-1620) und U118 (ATCC HTB-15), die humane Lungenkarzinom Zelllinie A549, das humane epidermoide Karzinom A431 (ATCC CRL-2592), die humanen Prostatakarzinom Zelllinien DU145 (ATCC HTB-81) und PC3 (ATCC CRL-1435) und die humane Kolon Adenokarzinomzelllinie HT29 (ATCC HTB-38). Es handelt sich hierbei um sehr gut charakterisierte, etablierte Zelllinien, die von ATCC, ECACC bzw. NCI erhalten und in Kultur genommen wurden. Die in Tab. […]

A further experiment deals with KB/HeLa. The experiment can be described thus: XTT proliferation assay, KB/HeLa. The class given is cell-based. As to conditions: Homo sapiens, read-out: XTT Proliferationsassay, EC50 KB/Hela.
Source text: as §1, with “Substanzen.” for “Substanzen. Tabelle 1:”

The next experiment relates to LT12. The experiment can be described thus: XTT proliferation assay, LT12 (wild type). The class given is cell-based. Particulars: Rattus norvegicus, LT12; read-out: XTT Proliferationsassay, EC50 LT12.
Source text: as §1, §2, §3

The next experiment deals with L1210VCR. The experiment can be described thus: XTT proliferation assay, L1210VCR (resistant). It is filed as cell-based, murine. As to conditions: Mus musculus; read-out: XTT Proliferationsassay, EC50 L1210VCR.
Source text: as §1, §2, §3

The next experiment concerns A431. The experiment can be described thus: XTT proliferation assay, A431. It is filed as cell-based, human. As to conditions: for EC50: Homo sapiens, A-431, A431, read-out: XTT Proliferationsassay, EC50 A431.
Source text: as §1, §4

The subject of a further experiment is PC3. The experiment can be described thus: XTT proliferation assay, PC3. The class given is cell-based, human. Particulars: for EC50: Homo sapiens, PC-3, PC3, read-out: XTT Proliferationsassay, EC50 PC3.
Source text: as §1, §4

A further experiment deals with SKOV-3. The experiment can be described thus: XTT proliferation assay, SKOV-3. The class given is cell-based. Particulars: Homo sapiens, SK-OV-3; read-out: XTT Proliferationsassay, EC50 SKOV3.
Source text: as §1, with “Substanzen.” for “Substanzen. Tabelle 1:”

The test system of a further experiment is A549. The experiment can be described thus: XTT proliferation assay, A549. The class given is cell-based, human. As to conditions: for EC50: Homo sapiens, A549, A549, read-out: XTT Proliferationsassay, EC50 A549.
Source text: as §1, §4

A further experiment has as its system P388ADR. The experiment can be described thus: XTT proliferation assay, P388ADR (doxorubicin-resistant). The class given is cell-based, murine. As to conditions: Mus musculus, P388/ADR; read-out: XTT Proliferationsassay, EC50 P388ADR.
Source text: as §1, §2, §3

A further experiment relates to HT29. The experiment can be described thus: XTT proliferation assay, HT29. It is filed as cell-based, human. Particulars: for EC50: Homo sapiens, HT-29, HT29, read-out: XTT Proliferationsassay, EC50 HT29.
Source text: as §1, §4

For a further experiment, the system named is Rindertubulin. The experiment can be described thus: Inhibition of tubulin polymerisation in vitro. It is filed as biochemical, Rind. Particulars: Tubulin with 30% MAPs, mean of two independent experiments. An excerpt: In diesem Test wird durch Zyklen von Polymerisation und Depolymerisation aufgereinigtes Tubulin eingesetzt, welches durch Zugabe von GTP und Erwärmung zur Polymerisation gebracht wird. […]

In a further experiment the test system is A172. The experiment can be described thus: XTT proliferation assay, A172. It is filed as cell-based, human. Particulars: for EC50: Homo sapiens, A 172, A172, read-out: XTT Proliferationsassay, EC50 A172.
Source text: as §1, §4

In a further experiment the test system is SF-268. The experiment can be described thus: XTT proliferation assay, SF-268. It is filed as cell-based. As to conditions: Homo sapiens, read-out: XTT Proliferationsassay, EC50 SF-268.
Source text: as §1, with “Substanzen.” for “Substanzen. Tabelle 1:”

For a further experiment, the system named is U118MG. The experiment can be described thus: XTT proliferation assay, U118MG. Particulars: Homo sapiens, U-118-MG; read-out: XTT Proliferationsassay, EC50 U118MG. The class given is cell-based.
Source text: as §1, §4

[1] abbreviates: RKOP27, without expression of p27kip1, read-out: XTT Proliferationsassay, EC50 RKOP27.
The mark [2] stands for this setting: RKOP27 ind., p27kip1 expression induced (cells arrested), read-out: XTT Proliferationsassay, EC50 RKOP27 ind.

SMILES strings stand for the structures. Values after ≈ are worked out from the molar mass of the structure shown. Structures can show the parent of a compound that is named as a salt. Where two headings read alike, the source gives them in different places. Some results are limits rather than exact numbers.

With `Cc1ccc2cc(NC(=O)C(=O)c3cn(Cc4ccc(Cl)cc4)c4ccccc34)ccc2n1` [Verbindung 1, 2-[1-(4-Chlor-benzyl)-1 H-indol-3-yl]-N-(2-methyl-chinolin-6-yl)-2-oxo-acetamid, reference compound], the EC50 in the experiment on P388 was 0.13 µg/mL (≈ 0.286 µM); with RKOp27 (setting [1]), 0.23 µg/mL (≈ 0.507 µM); in the experiment with RKOp27 (setting [2]) it was > 3.16 µg/mL; in the experiment with LT12mdr, 0.218 µg/mL (≈ 0.48 µM); in the experiment with NCI-H460 it was 0.344 µg/mL (≈ 0.758 µM); with L1210, 0.233 µg/mL (≈ 0.513 µM). The EC50 with DU145 is 0.329 µg/mL (≈ 0.725 µM); with KB/HeLa, 0.183 µg/mL (≈ 0.403 µM); in the experiment on LT12 it was 0.133 µg/mL (≈ 0.293 µM); with L1210VCR it was 0.304 µg/mL (≈ 0.67 µM); with A431 it was 0.076 µg/mL (≈ 0.167 µM); in the experiment with PC3, 0.199 µg/mL (≈ 0.438 µM). For the same molecule, the EC50 in the experiment with SKOV-3 worked out at 0.174 µg/mL (≈ 0.383 µM); with A549 it was 0.304 µg/mL (≈ 0.67 µM); in the experiment with P388ADR, 0.212 µg/mL (≈ 0.467 µM); with HT29 it was 0.266 µg/mL (≈ 0.586 µM); with A172 it was 0.165 µg/mL (≈ 0.363 µM); in the experiment with SF-268, 0.261 µg/mL (≈ 0.575 µM). For the same molecule, the “Hemmung der Tubulin-Polymerisation, EC50” value in the experiment on Rindertubulin (listed as 1 (V)) was found to be 1.16 µg/mL.

In the case of `CC[C@]1(O)C[C@H]2CN(CCc3c([nH]c4ccccc34)[C@@](C(=O)OC)(c3cc4c(cc3OC)N(C=O)[C@H]3[C@@](O)(C(=O)OC)[C@H](OC(C)=O)[C@]5(CC)C=CCN6CC[C@]43[C@@H]65)C2)C1` [vincristine, reference compound], in the experiment with Rindertubulin, the “Hemmung der Tubulin-Polymerisation, EC50” value came to 0.35 µg/mL.

Regarding `O=C1c2c(O)ccc(O)c2C(=O)c2c(NCCNCCO)ccc(NCCNCCO)c21` [mitoxantron, reference compound], the EC50 in the experiment on P388ADR was 0.608 µg/mL (≈ 1.37 µM).

Regarding `O=C(Nc1ccc2[nH]ncc2c1)C(=O)c1cn(Cc2ccc(Cl)cc2)c2ccccc12` [Verbindung 6, 2-[1-(4-Chlor-benzyl)-1H-indol-3-yl]-N-(1H-indazol-5-yl)-2-oxo-acetamid], the EC50 in the experiment on P388 is 0.175 µg/mL (≈ 0.408 µM); in the experiment on RKOp27 (setting [1]), 0.148 µg/mL (≈ 0.345 µM); in the experiment on RKOp27 (setting [2]), > 3.16 µg/mL; with LT12mdr it was 0.093 µg/mL (≈ 0.217 µM); with NCI-H460 it was 0.233 µg/mL (≈ 0.543 µM); with L1210, 0.246 µg/mL (≈ 0.574 µM). For the same molecule, the EC50 stood at 0.506 µg/mL (≈ 1.18 µM) in the experiment with DU145; 0.335 µg/mL (≈ 0.781 µM) in the experiment on KB/HeLa; 0.084 µg/mL (≈ 0.196 µM) in the experiment on LT12; 0.241 µg/mL (≈ 0.562 µM) in the experiment on L1210VCR; 0.07 µg/mL (≈ 0.163 µM) in the experiment on A431; 0.093 µg/mL (≈ 0.217 µM) in the experiment on PC3. For the same molecule, the EC50 is 0.144 µg/mL (≈ 0.336 µM) in the experiment with SKOV-3; 0.323 µg/mL (≈ 0.753 µM) in the experiment with A549; 0.231 µg/mL (≈ 0.539 µM) in the experiment with P388ADR; 0.059 µg/mL (≈ 0.138 µM) in the experiment with HT29; 0.342 µg/mL (≈ 0.797 µM) in the experiment with A172; 0.097 µg/mL (≈ 0.226 µM) in the experiment with U118MG. The EC50 with SF-268 was > 3.16 µg/mL. In the experiment with Rindertubulin, the “Hemmung der Tubulin-Polymerisation, EC50” value came out at 1.26 µg/mL.

With `Cc1ccc2cc(NC(=O)C(=O)c3cn(Cc4ccc(Cl)cc4)c4ccccc34)ccc2n1` [Verbindung 3, 6-{2-[1-(4-Chlor-benzyl)-1 H-indol-3-yl]-2-oxo-acetylamino}-2-methyl-chinolin Hydrochlorid, reference compound], the “XTT Proliferationsassay, EC50 DU145” value in the experiment on DU145 (DU145, listed as 3 (V)) turned out to be 0.426 µg/mL. In the experiment with A431 (A431, listed as 3 (V)), the “XTT Proliferationsassay, EC50 A431” value stood at 0.075 µg/mL. In addition, the “XTT Proliferationsassay, EC50 PC3” value in the experiment on PC3 (PC3, listed as 3 (V)) came out at 0.165 µg/mL. The “XTT Proliferationsassay, EC50 A549” value in the experiment with A549 (A549, listed as 3 (V)) is 0.405 µg/mL. Besides, the “XTT Proliferationsassay, EC50 HT29” value with HT29 (HT29, listed as 3 (V)) came out at 0.219 µg/mL. For the same molecule, the “XTT Proliferationsassay, EC50 A172” value in the experiment on A172 (A172, listed as 3 (V)) was found to be 0.171 µg/mL. For the same molecule, the EC50 with U118MG came to 0.142 µg/mL.

Values taken from patent EP1484329A1, “Indole derivatives with apoptosis inducing activity” (Zentaris GmbH, priority 2003, dated 2004).
